Test results: ChEMBL document CHEMBL1153018, “Synthesis of pochoxime prodrugs as potent HSP90 inhibitors” (Bioorg Med Chem Lett, 2009)
Activity calls are given as the source filed them. No cut-off for these calls is given here.

Assays:
[1] = Growth inhibition of human tarceva and iressa-resistant HCC827 cells assessed as ATP level after 4 days; format: functional; settings: HCC827, 96 h
Mus musculus [2] = experiment: Hepatotoxicity in ICR-SCID mouse liver assessed as hematopoietic cell differentiation administered 3 times per week for 4 weeks measured after 24 hrs of last dose; format: toxicity, organism-based; settings: in vivo
[3] = Drug level in tumor of human BT474 cells xenografted in ICR-SCID mouse at 200 mg/kg, ip administered after 3 weeks tumor implantation measured after 12 hrs; format: ADME, organism-based, Neoplasm, BT-474; parameters: dose 200 mg/kg, route intraperitoneal; settings: tumor (human BT474 xenograft), read-out: Drug uptake
Mus musculus [4] = experiment: Toxicity in ICR-SCID mouse heart assessed as cholesterol level at 100 mg/kg administered 3 times per week for 4 weeks measured after 24 hrs of last dose relative to untreated control; format: organism-based; parameters: dose 100 mg/kg; settings: in vivo
BT-474 [5] = experiment: Induction of Cdk4 degradation in human BT474 cells xenografted in ICR-SCID mouse at 100 mg/kg, ip administered after 3 weeks tumor implantation after 6 to 48 hrs by Western blotting; format: functional, organism-based; parameters: dose 100 mg/kg
BT-474 [6] = experiment: Induction of p-HER2 degradation in human BT474 cells xenografted in ICR-SCID mouse at 100 mg/kg, ip administered after 3 weeks tumor implantation after 6 to 48 hrs by Western blotting; format: functional, organism-based; parameters: dose 100 mg/kg
Mus musculus [7] = experiment: Toxicity in ICR-SCID mouse heart assessed as […] level at 150 mg/kg administered 3 times per week for 4 weeks measured after 24 hrs of last dose relative to untreated control; format: organism-based; parameters: dose 150 mg/kg; settings: in vivo
Mus musculus [8] = experiment: Hepatotoxicity in ICR-SCID mouse liver assessed as alkaline phosphatase level at 100 mg/kg administered 3 times per week for 4 weeks measured after 24 hrs of last dose relative to untreated control; format: toxicity, organism-based; parameters: dose 100 mg/kg; settings: in vivo
[9] = Solubility in water; format: physicochemical; settings: buffer
NCI-H1975 [10] = experiment: Growth inhibition of human tarceva and iressa-resistant NCI-H1975 cells assessed as ATP level after 4 days; format: functional; settings: NCI-H1975, 96 h
[11] = Drug level in tumor of human BT474 cells xenografted in ICR-SCID mouse at 150 mg/kg, ip administered after 3 weeks tumor implantation measured after 24 hrs; format: ADME, organism-based, Neoplasm, BT-474; parameters: dose 150 mg/kg, route intraperitoneal; settings: tumor (human BT474 xenograft), read-out: Drug uptake
[12] = Bioavailability in […] dosed mouse; format: ADME, organism-based; settings: in vivo
HCC827 = experiment: Induction of mutant Met degradation in human tarceva and iressa-resistant HCC827 cells at 20 to 500 nM by Western blotting; format: functional, cell-based
BT-474 [13] = experiment: Induction of p-AKT degradation in human BT474 cells xenografted in ICR-SCID mouse at 100 mg/kg, ip administered after 3 weeks tumor implantation after 6 to 48 hrs by Western blotting; format: functional, organism-based; parameters: dose 100 mg/kg
NCI-H1975 [14] = experiment: Induction of mutant Cyclin D degradation in human tarceva and iressa-resistant NCI-H1975 cells at 20 to 500 nM by Western blotting; format: functional, cell-based
Homo sapiens = organism: Homo sapiens; experiment: Growth inhibition of human tarceva and iressa-resistant […] cells assessed as ATP level after 4 days; format: functional
Mus musculus [15] = experiment: Toxicity in ICR-SCID mouse heart assessed as cholesterol level at 150 mg/kg administered 3 times per week for 4 weeks measured after 24 hrs of last dose relative to untreated control; format: organism-based; parameters: dose 150 mg/kg; settings: in vivo
BT-474 [16] = experiment: Induction of c-Raf degradation in human BT474 cells xenografted in ICR-SCID mouse at 100 mg/kg, ip administered after 3 weeks tumor implantation after 6 to 48 hrs by Western blotting; format: functional, organism-based; parameters: dose 100 mg/kg
BT-474 [17] = experiment: Growth inhibition of human BT474 cells assessed as ATP level after 4 days; format: functional; settings: BT-474, 96 h
[18] = target: Heat shock protein HSP 90-alpha (Homo sapiens) (UniProt P07900)
Description: Binding affinity to human HSP90alpha

NCI-H1975 [19] = experiment: Induction of mutant p-Akt degradation in human tarceva and iressa-resistant NCI-H1975 cells at 20 to 500 nM by Western blotting; format: functional, cell-based
HCT-116 = experiment: Growth inhibition of human HCT116 cells assessed as ATP level after 4 days; format: functional; settings: HCT-116, 96 h
Mus musculus [20] = experiment: Toxicity in ICR-SCID mouse kidney assessed as BUN level at 100 mg/kg administered 3 times per week for 4 weeks measured after 24 hrs of last dose relative to untreated control; format: organism-based; parameters: dose 100 mg/kg; settings: in vivo
[21] = Growth inhibition of human MDA231 cells assessed as ATP level after 4 days; format: functional; settings: MDA-MB-231, 96 h
NCI-N87 = experiment: Growth inhibition of human NCI-N87 cells assessed as ATP level after 4 days; format: functional; settings: NCI-N87, 96 h
BT-474 [22] = experiment: Induction of Cyclin D degradation in human BT474 cells xenografted in ICR-SCID mouse at 100 mg/kg, ip administered after 3 weeks tumor implantation after 6 to 48 hrs by Western blotting; format: functional, organism-based; parameters: dose 100 mg/kg
NCI-H1975 [23] = experiment: Induction of mutant Met degradation in human tarceva and iressa-resistant NCI-H1975 cells at 20 to 500 nM by Western blotting; format: functional, cell-based

Structure (SMILES): O=C1OCC/C=C/CC/C=C/C(=N/OCC(=O)N2CCCCC2)Cc2c(Cl)c(O)cc(O)c21 [POCHOXIME A]
- GI50 [1]: 31 nM
- Activity (Mus musculus [2]): Not Active
- concentration at 12 h [3]: 8920 ng/g
- Activity (Mus musculus [4]): 168 mg/dL
- Activity (BT-474 [5]): Active
- Activity (BT-474 [6]): Active
- Activity (Mus musculus [7]): 31 U/L
- Activity (Mus musculus [8]): 51.3 U/L
- solubility [9]: Insoluble
- GI50 (NCI-H1975 [10]): 25 nM
- concentration at 24 h [11]: 7930 ng/g
- bioavailability [12]: 60.5%
- Activity (HCC827): Active
- Activity (BT-474 [13]): Active
- Activity (NCI-H1975 [14]): Active
- Activity (Homo sapiens): Active
- Activity (Mus musculus [15]): 119 mg/dL
- Activity (BT-474 [16]): Active
- GI50 (BT-474 [17]): 7 nM
- GI50 [18]: 21 nM
- Activity (NCI-H1975 [19]): Active
- GI50 (HCT-116): 9 nM
- Activity (Mus musculus [20]): 20 mg/dL
- GI50 [21]: 7 nM
- GI50 (NCI-N87): 4 nM
- Activity (BT-474 [22]): Active
- Activity (NCI-H1975 [23]): Active
